US8859527B2 (priority 2009, dated 2014)
Where two headings read alike, the source gives them in different places.

Experiments:
[1] = test system: Hela (human cervical cancer cell line); experiment: in vitro growth inhibition of tumor cells, Hela; format: cell-based; conditions: for Inhibition effects on in vitro growth: hela, 48 hours
Procedure: (§1) The tumor strains are A-549 (human lung adenocarcinoma cell line), BGC-823 (human gastric cancer cell line), C-6 (rat neurogliocytoma cell line), Hep G2 (human hepatic cancer cell line), HL-60 (human leukemia cell line), K-562 (human erythremia cell line) and Hela (human cervical cancer cell line). […] The drug was prepared as a stock solution of 10^−2 M by using physiological saline and diluted into the test solution in a gradient composed of five concentrations: C1 5×10^−5 M, C2 10^−5 M, C3 10^−6 M, C4 10^−7 M and C5 10^−8 M.
(§2) Experimental method: different tumor cells in exponential growth phase are inoculated in 96-well plates in a certain amount and the selected samples are added after the cells are cultured for 24 hours (suspension cells can be directly added after being inoculated), after the cells are incubated at 37° C. and 5% CO2 for another 48 hours, […] is added for further incubation for another 4 hours, and finally the samples are examined on a microplate reader after dissolving with DMSO.

colon cancer HT-29 = conditions: cited from earlier work
[2] = test system: A-549 (human lung adenocarcinoma cell line); experiment: in vitro growth inhibition of tumor cells, A-549; format: cell-based; conditions: for Inhibition effects on in vitro growth: A549, 48 hours
Procedure: as §1, §2

[3] = test system: C-6 (rat neurogliocytoma cell line); experiment: in vitro growth inhibition of tumor cells, C-6; format: cell-based; conditions: C6; for Inhibition effects on in vitro growth: 48 hours
Procedure: as §1, §2

transplanted tumor S180 = conditions: S180 mice; for Body weight After administration / Tumor weight / Tumor-inhibition rate: once every two days, four times
Procedure: (§3) Experimental groups: three dosage groups were set up for DPT, 10, 5 and 2.5 mg/kg; the blank control group: cyclophosphamide (CTX) group, Etoposide group 20 mg/kg.
(§4) Administration route: injection via tail vein, it is administered in a dosage of 0.4 ml/20 g body weight. Administration period: the drug is administrated 24 hours after the inoculation, once every two days for four times in total.
(§5) Experimental methods: 60 ICR mice with standard weight of from 18 to 22 g are inoculated with S-180 or Heps solid tumor according to the test method for transplanted tumors, hypodermic inoculation with 0.2 ml is carried out in the armpit in the anterior limb of every mouse. The body weight is determined 24 hours after the inoculation and they are randomly divided into six groups: the blank control group, the CTX group (20 mg/kg), the Etoposide group (20 mg/kg), the DPT group (10, 5 and 2.5 mg/Kg). The drug is administrated 24 hours after the inoculation once for every two days for 4 times, and tumor-bearing mice are killed on the next after drug withdrawal and their body weights are measured, and the separated tumor mess is weighed, and all of the data are subjected to statistical analyses (t-test).

transplanted tumor Heps = conditions: Heps mice; for Body weight After administration / Tumor inhibition rate / Tumor weight: once every two days, four times
Procedure: as §3, §4, §5

human lung cancer A-549 = conditions: cited from earlier work
[4] = test system: Hep G2 (human hepatic cancer cell line); experiment: in vitro growth inhibition of tumor cells, Hep G2; format: cell-based; conditions: HepG2, 48 hours
Procedure: as §1, §2

[5] = test system: BGC-823 (human gastric cancer cell line); experiment: in vitro growth inhibition of tumor cells, BGC-823; format: cell-based; conditions: for Inhibition effects on in vitro growth: 48 hours
Procedure: as §1, §2

[6] = test system: HL-60 (human leukemia cell line); experiment: in vitro growth inhibition of tumor cells, HL-60; format: cell-based; conditions: for Inhibition effects on in vitro growth: 48 hours
Procedure: as §1, §2

COc1cc([C@@H]2c3cc4c(cc3C[C@H]3COC(=O)[C@@H]32)OCO4)cc(OC)c1OC [DPT, Deoxypodophyllotoxin]
inhibition effects compared with Etoposide ([1]; Hela, 10^−5 to 10^−8 M): significant better than that of Etoposide | Inhibition effects on in vitro growth ([1]; 5 × 10^−5M): 62.68% | Inhibition effects on in vitro growth ([1]; 10^−5M): 49.89% | Inhibition effects on in vitro growth ([1]; 10^−6M): 47.9% | Inhibition effects on in vitro growth ([1]; 10^−7M): 46.57% | Inhibition effects on in vitro growth ([1]; 10^−8M): 42.9% | in vitro inhibition effects (colon cancer HT-29): in vitro inhibition effects | Inhibition effects on in vitro growth ([2]; 5 × 10^−5M): 59.18% | Inhibition effects on in vitro growth ([2]; 10^−5M): 56% | Inhibition effects on in vitro growth ([2]; 10^−6M): 53.5% | Inhibition effects on in vitro growth ([2]; 10^−7M): 52.24% | Inhibition effects on in vitro growth ([2]; 10^−8M): 50.77% | inhibition effects compared with Etoposide ([2]; A-549, 10^−5 to 10^−8 M): significant better than that of Etoposide | Inhibition effects on in vitro growth ([3]; 5 × 10^−5M): 84.41% | Inhibition effects on in vitro growth ([3]; 10^−5M): 58.54% | inhibition effects compared with Etoposide ([3]; 10^−5 to 10^−8 M): significant better than that of Etoposide | Inhibition effects on in vitro growth ([3]; 10^−6M): 55.01% | Inhibition effects on in vitro growth ([3]; 10^−7M): 54.11% | Inhibition effects on in vitro growth ([3]; 10^−8M): 52.34% | Body weight Before administration (transplanted tumor S180; 2.5 mg/kg iv group): 19.70 ± 1.16 g | Body weight After administration (transplanted tumor S180; 2.5 mg/kg iv): 24.90 ± 2.47 g | Tumor weight (transplanted tumor S180; 2.5 mg/kg iv): 1.41 ± 0.30 g | Tumor-inhibition rate (transplanted tumor S180; 2.5 mg/kg iv): 23.44% | Body weight Before administration (transplanted tumor S180; 5 mg/kg iv group): 19.00 ± 0.94 g | Body weight After administration (transplanted tumor S180; 5 mg/kg iv): 22.50 ± 2.55 g | Tumor weight (transplanted tumor S180; 5 mg/kg iv): 1.08 ± 0.26 g | Tumor-inhibition rate (transplanted tumor S180; 5 mg/kg iv): 41.67% | Body weight Before administration (transplanted tumor S180; 10 mg/kg iv group): 19.40 ± 1.71 g | Body weight After administration (transplanted tumor S180; 10 mg/kg iv): 22.50 ± 2.07 g | Tumor weight (transplanted tumor S180; 10 mg/kg iv): 0.84 ± 0.27 g | Tumor-inhibition rate (transplanted tumor S180; 10 mg/kg iv): 54.53% | Body weight Before administration (transplanted tumor Heps; 2.5 mg/kg iv group): 20.20 ± 1.48 g | Body weight After administration (transplanted tumor Heps; 2.5 mg/kg iv): 24.50 ± 2.22 g | Tumor inhibition rate (transplanted tumor Heps; 2.5 mg/kg iv): 32.10% | Tumor weight (transplanted tumor Heps; 2.5 mg/kg iv): 1.34 ± 0.29 g | Body weight Before administration (transplanted tumor Heps; 5 mg/kg iv group): 20.80 ± 1.40 g | Body weight After administration (transplanted tumor Heps; 5 mg/kg iv): 24.00 ± 3.46 g | Tumor inhibition rate (transplanted tumor Heps; 5 mg/kg iv): 42.27% | Tumor weight (transplanted tumor Heps; 5 mg/kg iv): 1.14 ± 0.15 g | Body weight Before administration (transplanted tumor Heps; 10 mg/kg iv group): 21.40 ± 0.84 g | Body weight After administration (transplanted tumor Heps; 10 mg/kg iv): 22.90 ± 2.73 g | Tumor inhibition rate (transplanted tumor Heps; 10 mg/kg iv): 52.09% | Tumor weight (transplanted tumor Heps; 10 mg/kg iv): 0.94 ± 0.32 g | in vitro inhibition effects (human lung cancer A-549): in vitro inhibition effects | Inhibition effects on in vitro growth ([4]; 5 × 10^−5M): 52.98% | Inhibition effects on in vitro growth ([4]; 10^−5M): 31.85% | Inhibition effects on in vitro growth ([4]; 10^−6M): 22.49% | Inhibition effects on in vitro growth ([4]; 10^−7M): 24.36% | Inhibition effects on in vitro growth ([4]; 10^−8M): 24.32% | Inhibition effects on in vitro growth ([5]; 5 × 10^−5M): 52.54% | Inhibition effects on in vitro growth ([5]; 10^−5M): 35.31% | inhibition effects compared with Etoposide ([5]; 10^−5 to 10^−8 M): significant better than that of Etoposide | Inhibition effects on in vitro growth ([5]; 10^−6M): 33.2% | Inhibition effects on in vitro growth ([5]; 10^−7M): 30.35% | Inhibition effects on in vitro growth ([5]; 10^−8M): 24.49% | Inhibition effects on in vitro growth ([6]; 5 × 10^−5M): 57.37% | Inhibition effects on in vitro growth ([6]; 10^−5M): 39.41% | inhibition effects compared with Etoposide ([6]; 10^−5 to 10^−8 M): significant better than that of Etoposide | Inhibition effects on in vitro growth ([6]; 10^−6M): 36.83% | Inhibition effects on in vitro growth ([6]; 10^−7M): 29.27% | Inhibition effects on in vitro growth ([6]; 10^−8M): 14.96%
